Reference: patent publication US12545637B2, “Extrahepatic targeted cationic lipid compound with high efficiency and low toxicity and its composition” (BEIJING YOUCARE KECHUANG PHARMACEUTICAL TECHNOLOGY CO., LTD., priority 2023, dated 2026)

Legend:
[1] = Particle size and polydispersity index (PDI) of lipid nanoparticles by dynamic light scattering; assay type: physicochemical
Procedure: The particle size and polydispersity index (PDI) were determined by dynamic light scattering using Malvern laser particle size analyzer.
10 μL of the liposome solution was weighed, diluted to 1 mL with RNase-free deionized water, and added to the sample pool. Each sample was measured in triplicate. The measurement conditions were: […] scattering angle, and 25° C.

[2] = tested on: 293T cells; assay: Cell survival rate assay (CCK-8); assay type: cell-based
Procedure, shortened: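 293T cells seeded at 10,000 cells/well, cultured overnight, then exposed 24 h to LNP carrying 1.5 μg Fluc-mRNA (cationic:neutral:structured:PEG-type lipid 49:10:39.5:1.5) or Lipofectamine 3000. Viability read by CCK-8, 1 h incubation, absorbance at 450 nm.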

[3] = tested on: 293T cells; assay: Fluorescent detection of Fluc-mRNA (cell transfection efficiency of LNP formulations); assay type: cell-based
[4] = tested on: 293T cells; assay: Cell transfection test of LNP formulation of eGFP-mRNA (optimization of preparation conditions); assay type: cell-based
Procedure: The cationic lipid compound YK-407 synthesized in Example 1 was dissolved in ethanol with DSPC (AVT (Shanghai) Pharmaceutical Technology Co., Ltd.), cholesterol (AVT (Shanghai) Pharmaceutical Technology Co., Ltd.) and DMG-PEG2000 according to a molar ratio of 49:10:39.5:1.5, respectively, to prepare an ethanol lipid solution. The ethanol lipid solution was quickly added to citrate buffer (pH=4-5) by ethanol injection method, and vortexed for 30s for later use. eGFP-mRNA was diluted in citrate buffer (pH=4-5) to give an aqueous mRNA solution. A certain volume of liposome solution and mRNA aqueous solution were used to prepare liposomes at weight ratios of total lipids to mRNA of 5:1, 10:1, 15:1, 20:1, 30:1 and 35:1, respectively. The mixtures were sonicated at 25° C. for 15 min (with an ultrasonic frequency of 40 kHz and an ultrasonic power of 800 W). The resulted liposomes were diluted to 10 times volume with PBS, and then ultrafiltered with a 300KDa ultrafiltration tube to remove ethanol. Then the volume was fixed to a certain volume with PBS to give an LNP formulation encapsulating eGFP-mRNA using cationic lipid YK-407/DSPC/cholesterol/DMG-PEG2000 (49:10:39.5:1.5 in molar percentage).
The LNP formulation encapsulating eGFP-mRNA was prepared according to the method in 1, wherein the molar ratios of cationic lipid YK-407 to neutral lipid DSPC were 1:1, 3:1, 3.5:1, 4:1, 4.5:1, 4.9:1, 10:1, 15:1 and 20:1.
The LNP formulation encapsulating eGFP-mRNA was prepared according to the method in 1, wherein the cationic lipid in the carrier was YK-407, and the molar ratios of the polymer-conjugated lipid DMG-PEG2000 to the carrier were 0.5%, 1.5%, 3.5%, 5%, 10% and 15%, respectively.
The LNP formulation encapsulating eGFP-mRNA was prepared according to the method in 1, wherein the molar ratios of cationic lipid YK-407, neutral lipid DSPC, structured lipid cholesterol and polymer-conjugated lipid DMG-PEG2000 were 75:5:15:5, 49:10:39.5:1.5, 45:10:43.5:1.5, 45:25:20:10, 40:10:48.5:1.5, 35:10:53.5:1.5 and 25:5:65:5, respectively.
Cell recovery and passage: 293T cells were recovered, cultured in a culture dish, and passaged to the required number of cells.
Seeding plate: The cells in the culture dish were digested and counted. Cells were spread in a 96-well plate at 10,000 cells per well and in a 12-well plate at 150,000 cells per well. Cells were cultured overnight until the cells adhered to the wall.
Cell transfection test: The LNP formulation containing 1.5 μg of eGFP-mRNA prepared in Example 2 (the cationic lipid in the carrier was YK-407) and the Lipofectamin 3000 formulation of eGFP-mRNA were added respectively to the cell culture medium of the 12-well plate, and further incubated for 24 hours. The transfection efficiency of different samples was then investigated according to the fluorescence intensity by observing with a fluorescence microscope.

[5] = tested on: 293T cells; assay: Fluorescent detection of Fluc-mRNA (cell transfection efficiency of LNP formulations); assay type: cell-based; remark: listed apart in the source

`CCCCCCCCC(CCCCCCCC)OC(=O)CCCCCCCN(CCO)CCN(CCO)CCCCCCCC(=O)OC(CCCCCCCC)CCCCCCCC` [YK-403, di(heptadecan-9-yl) 8, 8′-(ethane-1,2-diyl-bis((2-hydroxyethyl)azanediyl))dioctanoate] gave a PDI ([1]; LNP formulation of the cationic lipid, 25° C.) of 16.5%, a Particle size ([1]; LNP formulation of the cationic lipid/DSPC/cholesterol/DMG-PEG2000 49:10:39.5:1.5, 25° C.) of 163 nm and a Cell survival rate ([2]; LNP with 1.5 μg Fluc-mRNA, 24 hours, CCK-8) of 70.76%. For the same molecule, the “cell survival rate higher than ALC-0315” value ([2]; difference vs ALC-0315) was 23.55%, the “cell survival rate higher than HIMA” value ([2]; difference vs HIMA (HHMA)) was 6.49% and the “cell survival rate higher than Lipofectamine 3000” value ([2]; difference vs Lipofectamine 3000) was 49.10%. The “cell survival rate higher than SM-102” value ([2]; difference vs SM-102) was 2.86%, the “cell survival rate higher than YK-404” value ([2]; difference vs YK-404) was 28.64% and the “cell survival rate higher than YK-405” value ([2]; difference vs YK-405) was 28.90%. The “cell survival rate higher than YK-406” value ([2]; difference vs YK-406) was 45.80%, the “cell survival rate higher than YK-408” value ([2]; difference vs YK-408) was 28.45% and the “cell survival rate higher than YK-409” value ([2]; difference vs YK-409) was 24.65%. For the same molecule, the “cell survival rate higher than YK-410” value ([2]; difference vs YK-410) was 25.84%, the “cell survival rate higher than YK-411” value ([2]; difference vs YK-411) was 54.43% and the “cell survival rate higher than YK-412” value ([2]; difference vs YK-412) was 16.62%. For the same molecule, the “cell survival rate higher than YK-413” value ([2]; difference vs YK-413) was 23.56%, the “cell survival rate higher than YK-414” value ([2]; difference vs YK-414) was 42.01% and the “cell survival rate higher than YK-415” value ([2]; difference vs YK-415) was 9.60%. For the same molecule, the “cell survival rate higher than YK-416” value ([2]; difference vs YK-416) was 29.79%, the “cell survival rate higher than YK-417” value ([2]; difference vs YK-417) was 49.42% and the “cell survival rate higher than YK-418” value ([2]; difference vs YK-418) was 49.71%. The “cell survival rate higher than YK-419” value ([2]; difference vs YK-419) was 31.84%, the “cell survival rate higher than YK-420” value ([2]; difference vs YK-420) was 35.17% and the “cell survival rate higher than YK-421” value ([2]; difference vs YK-421) was 35.05%. For the same molecule, the “cell survival rate higher than YK-424” value ([2]; difference vs YK-424) was 42.83%, the “cell survival rate higher than compound 21” value ([2]; difference vs compound 21) was 2.92% and the “cell survival rate higher than compound 23” value ([2]; difference vs compound 23) was 1.65%. The “cytotoxicity reduced compared with YK-411” value ([2]; rounded summary statement vs YK-411) was 50%, the “Relative light unit (RLU)” value ([3]; LNP with 0.3 μg Fluc-mRNA, 96-well plate, 24 hours) was 5249304 RLU and the “cell transfection efficiency, times that of YK-415” value ([3]; ratio vs YK-415) was 17.61. For the same molecule, the “cell transfection efficiency, times that of YK-417” value ([3]; ratio vs YK-417) was 44.76, the “cell transfection efficiency, times that of YK-418” value ([3]; ratio vs YK-418) was 47.18 and the “cell transfection efficiency, times that of YK-424” value ([3]; ratio vs YK-424) was 1.82. The “RLU value, times that of compound 21” value ([3]; ratio vs compound 21) was 3.47, the “RLU value, times that of compound 23” value ([3]; ratio vs compound 23) was 3.74 and the “transfection efficiency at different molar ratios of polymer-conjugated lipid DMG-PEG2000 to carrier” value ([4]; 0.5% to 15%) was “same results”. The “transfection effect at different molar ratios of cationic lipid, neutral lipid, structured lipid and polymer-conjugated lipid” value ([4]; 75:5:15:5 to 25:5:65:5) was “same results”, the “RLU value, times that of ALC-0315” value ([5]; ratio vs ALC-0315) was 2.40 and the “RLU value, times that of HHMA” value ([5]; ratio vs HHMA) was 2.52. For the same molecule, the “RLU value, times that of Lipofectamine 3000” value ([5]; ratio vs Lipofectamine 3000) was 4.37, the “RLU value, times that of YK-009” value ([5]; ratio vs YK-009) was 1.02 and the “RLU value, times that of YK-405” value ([5]; ratio vs YK-405) was 1.64. The “RLU value, times that of YK-406” value ([5]; ratio vs YK-406) was 67.08, the “RLU value, times that of YK-408” value ([5]; ratio vs YK-408) was 3.56 and the “RLU value, times that of YK-409” value ([5]; ratio vs YK-409) was 7.84. For the same molecule, the “RLU value, times that of YK-410” value ([5]; ratio vs YK-410) was 12.87, the “cell transfection efficiency, times that of YK-412” value ([5]; ratio vs YK-412) was 1.56 and the “cell transfection efficiency, times that of YK-413” value ([5]; ratio vs YK-413) was 3.81. For the same molecule, the “cell transfection efficiency, times that of YK-414” value ([5]; ratio vs YK-414) was 11.82, the “cell transfection efficiency, times that of YK-416” value ([5]; ratio vs YK-416) was 1.32 and the “cell transfection efficiency, times that of YK-419” value ([5]; ratio vs YK-419) was 1.66. The “cell transfection efficiency, times that of YK-420” value ([5]; ratio vs YK-420) was 1.31 and the “cell transfection efficiency, times that of YK-421” value ([5]; ratio vs YK-421) was 11.25.
